Experimental data from paper PMC2693121 (Molecular cell, 2009).

How the values were obtained:
Cdk9 = Cdk9 (Schizosaccharomyces pombe, UniProt Q96WV9, T120G); test: radiometric kinase assay with [γ-32P]-ATP on GST-Spt5; format: biochemical
Mcs6 = Mcs6 (Schizosaccharomyces pombe, UniProt Q12126, L87G); test: radiometric kinase assay with [γ-32P]-ATP on GST-Rpb1-CTD; format: biochemical
Sequence of Mcs6 (P36613 whole entry): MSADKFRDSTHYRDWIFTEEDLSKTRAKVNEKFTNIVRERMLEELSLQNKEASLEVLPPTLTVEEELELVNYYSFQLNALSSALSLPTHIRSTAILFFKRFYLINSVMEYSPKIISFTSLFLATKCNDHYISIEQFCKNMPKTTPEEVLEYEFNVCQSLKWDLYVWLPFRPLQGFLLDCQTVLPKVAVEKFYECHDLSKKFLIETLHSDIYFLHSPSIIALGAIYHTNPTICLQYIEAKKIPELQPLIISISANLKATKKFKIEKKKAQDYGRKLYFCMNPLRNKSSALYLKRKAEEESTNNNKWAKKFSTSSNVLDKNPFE
Sequence of Mcs6 (Q12126 whole entry, stated change not applied): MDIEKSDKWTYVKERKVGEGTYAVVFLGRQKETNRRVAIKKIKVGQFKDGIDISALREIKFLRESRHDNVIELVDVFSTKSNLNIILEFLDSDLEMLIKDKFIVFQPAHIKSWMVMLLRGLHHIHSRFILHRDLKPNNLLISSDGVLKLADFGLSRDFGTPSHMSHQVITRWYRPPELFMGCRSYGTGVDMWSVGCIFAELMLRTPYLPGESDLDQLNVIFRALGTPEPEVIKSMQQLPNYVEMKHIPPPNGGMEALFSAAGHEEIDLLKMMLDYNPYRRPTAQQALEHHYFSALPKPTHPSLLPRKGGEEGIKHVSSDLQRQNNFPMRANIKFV
Sequence of Mcs6 (O94684 whole entry, further chain): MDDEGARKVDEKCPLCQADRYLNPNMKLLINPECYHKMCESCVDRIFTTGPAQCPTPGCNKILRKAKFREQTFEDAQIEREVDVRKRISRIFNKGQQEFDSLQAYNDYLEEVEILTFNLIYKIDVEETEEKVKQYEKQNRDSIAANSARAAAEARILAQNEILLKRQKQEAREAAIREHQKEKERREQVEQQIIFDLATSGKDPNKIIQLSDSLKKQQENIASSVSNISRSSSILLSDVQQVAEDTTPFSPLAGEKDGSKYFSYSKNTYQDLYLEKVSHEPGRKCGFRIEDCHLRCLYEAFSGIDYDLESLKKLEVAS

Sequence of Cdk9 (O74880 whole entry): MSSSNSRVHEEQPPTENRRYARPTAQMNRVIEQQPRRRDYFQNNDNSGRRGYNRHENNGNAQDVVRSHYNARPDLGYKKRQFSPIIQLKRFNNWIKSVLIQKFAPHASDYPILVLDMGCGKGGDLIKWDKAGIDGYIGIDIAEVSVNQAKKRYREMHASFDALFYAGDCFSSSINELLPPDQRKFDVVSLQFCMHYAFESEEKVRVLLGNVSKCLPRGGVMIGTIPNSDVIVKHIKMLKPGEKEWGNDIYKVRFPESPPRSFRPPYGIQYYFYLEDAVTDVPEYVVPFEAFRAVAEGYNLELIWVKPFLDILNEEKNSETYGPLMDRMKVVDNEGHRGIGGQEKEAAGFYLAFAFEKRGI
Sequence of Cdk9 (O74627 whole entry, further chain): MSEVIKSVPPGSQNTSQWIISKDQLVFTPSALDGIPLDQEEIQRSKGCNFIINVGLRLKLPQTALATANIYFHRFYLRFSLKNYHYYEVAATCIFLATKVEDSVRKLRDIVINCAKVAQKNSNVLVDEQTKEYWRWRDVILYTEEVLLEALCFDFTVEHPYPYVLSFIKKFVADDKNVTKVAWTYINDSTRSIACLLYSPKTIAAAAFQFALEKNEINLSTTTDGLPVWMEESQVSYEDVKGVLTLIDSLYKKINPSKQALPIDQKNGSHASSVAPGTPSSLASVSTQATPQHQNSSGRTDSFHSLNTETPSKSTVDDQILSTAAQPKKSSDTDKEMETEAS
Sequence of Cdk9 (Q96WV9 whole entry, stated change not applied): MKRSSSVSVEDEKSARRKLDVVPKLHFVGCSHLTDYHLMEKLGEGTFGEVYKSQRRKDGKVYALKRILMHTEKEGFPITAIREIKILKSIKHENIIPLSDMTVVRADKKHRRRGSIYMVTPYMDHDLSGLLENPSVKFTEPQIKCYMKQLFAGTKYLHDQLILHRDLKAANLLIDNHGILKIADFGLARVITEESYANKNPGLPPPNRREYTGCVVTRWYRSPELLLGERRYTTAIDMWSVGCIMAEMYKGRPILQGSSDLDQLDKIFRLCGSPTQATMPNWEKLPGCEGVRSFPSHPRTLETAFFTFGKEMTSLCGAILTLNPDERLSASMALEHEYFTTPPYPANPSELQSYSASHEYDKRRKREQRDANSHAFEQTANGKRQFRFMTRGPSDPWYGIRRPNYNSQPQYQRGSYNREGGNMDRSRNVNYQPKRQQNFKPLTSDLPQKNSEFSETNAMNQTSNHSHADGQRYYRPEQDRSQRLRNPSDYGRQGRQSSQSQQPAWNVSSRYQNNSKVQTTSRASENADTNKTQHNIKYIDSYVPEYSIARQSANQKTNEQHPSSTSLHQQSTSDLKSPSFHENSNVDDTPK

CC(C)(C)n1nc(Cc2cccc3ccccc23)c2c(N)ncnc21 [1-NM-PP1]
IC50 (Cdk9): ~500 nM

Cc1cccc(Cc2nn(C(C)(C)C)c3ncnc(N)c23)c1 [3-MB-PP1]
IC50 (Mcs6): ~125 nM
IC50 (Cdk9): ~25 nM
